{"source": "paper PMC11500415", "about": "“Chemical inhibition of stomatal differentiation by perturbation of the master-regulatory bHLH heterodimer via an ACT-Like domain” (Nature Communications, 2024)", "system": "mute-2 seedlings expressing MUTEpro::MUTE-GFP, MUTEpro::MUTEE162A_E163A-GFP or MUTEpro::MUTER133A_R134A-GFP", "assay": "Stomidazolone resistance of mute-2 seedlings expressing engineered MUTE-GFP", "assay_type": "in vivo, Arabidopsis", "experimental": "Arabidopsis accession Columbia (Col-0) was used as wild-type. […] Their genotype and transcript reduction were confirmed. The presence of transgenes/mutant alleles were confirmed by genotyping. For liquid culture with Stomidazolone (AYSJ929, compound 3), the analogs (AYSJ1059 (compound 5) and AYSJ1061 (compound 6)), degraded compound lzx103 (compound 4), and SIM3* (compound 7), all compounds were dissolved in dimethyl sulfoxide (DMSO, Molecular biology grade, Fujifilm Wako, Japan 046-21981), Col-0 seeds were sown in 96-well plates (TL5003; True Line) containing 95 μL of 1/2 MS media containing 0.5% sucrose with rotary shaking at 140 rpm under continuous light at 22 °C. Five μL of compounds were dissolved in DMSO at 10 mM and diluted with liquid 1/2 MS media to 1 mM and added on 1-day-old seedlings (final concentration, 50 μM). Seedlings were incubated for 8 days, and at day 9 seedling abaxial cotyledons were observed through confocal microscopy. For liquid culture of scrm-D_S343 and scrm-D_S423, 1/2 MS liquid media without sucrose was used. For the solid culture, 0, 20, 50 or 100 μM Stomidazolone were solidified with low-melting agarose (5805S, PrimeGelTM Agarose LMT 1-20 K, TAKARA Bio). Briefly, 1/2 MS salt, 0.5% sucrose, and 0.8% low melting agarose were mixed in water and autoclaved. After cooling the medium at around 30 °C, Stomidazolone (500x, dissolved in DMSO) was added and poured into 90 mm petri dishes (Asnol Petri Dish JP φ90 x 15 mm, 3-1491-01, AS ONE). Col-0 seeds were sown on Stomidazolone-containing 1/2 MS agarose media and grown under continuous light for 9 days.\nThe following constructs for transgenic plants were generated in this study: MUTEpro::MUTE-GFP (pAH11), MUTEpro::MUTEE162AE163A-GFP (pHS133), MUTEpro::MUTER133AR134A-GFP (pHS134). The original MUTEpro::MUTE-GFP construct (pLJP155) was generated via a different cloning strategy with different antibiotics selection. We therefore re-generated the wild-type Three-way Gateway version of MUTEpro::MUTE-GFP (pAH11) as a control. MUTE genomic coding construct without stop codon (pAR205) and MUTE promoter construct (pAR202) were subjected to the Gateway reaction with R4pGWB504[56]. The wild-type MUTE-GFP lines with the identical R4pGWB504 backbone enable a proper comparison of phenotypic complementation. The mutant versions of MUTE constructs were generated in the same way after site-directed mutagenesis using Q5 Site-directed mutagenesis kit (NEB) and subjected to the Three-Way Gateway reaction after sequence confirmation. The constructs were then transformed into the Agrobacterium strain GV3101 and floral dipped into mute-2/+ plants. To construct CaMV35S::H2B-mScarlet-I3/pPZP211 (DKv1400), 35S promoter (35Sp::RFP-CenH3 with DKp665-DKp1254)[57], H2B-(SGGGG)2 linker (from DKv1200[58] with DKp2412-DKp2599), mScarlet-I3 (from codon optimized synthetic DNA for A. thaliana), Nos terminator (from DKv1200 with DKp1251-DKp2598) were amplified using KOD one polymerase (TOYOBO). The PCR products were assembled into BamHI/EcoRI-digested pPZP211[59] using the NEBuilder HiFi DNA Assembly (NEB). For detailed lists of oligo DNA and plasmid information, see Tables S5 and S6, respectively.\nFor quantitative analysis of the abaxial leaf epidermis, confocal images were taken on the days after germination as indicated in the Figure legends. Preparation of images was done as described previously[32],[70]. For counting epidermal cell types, stomatal density, stomatal precursor cells (meristemoids), total stomata-lineage cells (stomata and meristemoids) were calculated by counting cell types in an area of 0.4 mm^2 (0.63 mm × 0.63 mm) and plotted as per mm^2. A series of Z-stack confocal images was obtained to obtain images covering the epidermis and capturing GFP/YFP signal from the reporter lines. The area and the number of epidermal cells were quantified by using FIJI-ImageJ. Statistical analyses were performed using R ver. 4.0.2. […]", "key": {"[1]": {"conditions": "line AH11 Ln5, 20 μM Stomidazolone, cotyledon abaxial epidermis, individual seedlings"}, "[2]": {"conditions": "line HS133 Ln26, 20 μM Stomidazolone, cotyledon abaxial epidermis, individual seedlings"}, "[3]": {"conditions": "line HS134 Ln26, 20 μM Stomidazolone, cotyledon abaxial epidermis, individual seedlings"}, "[4]": {"conditions": "transgenic line AH11 Ln25, cotyledon abaxial epidermis, 20 μM Stomidazolone, individual seedlings"}, "[5]": {"conditions": "transgenic line HS133 Ln19, cotyledon abaxial epidermis, 20 μM Stomidazolone, individual seedlings"}, "[6]": {"conditions": "transgenic line HS134 Ln23, cotyledon abaxial epidermis, 20 μM Stomidazolone, individual seedlings"}}, "note": "Several values for one entry are separate records, joined by “and”; a condition that tells them apart may be missing. Identical values can stand only once.", "data": [{"smiles": "O=C1C(c2ccccc2)=NC(NS(=O)(=O)c2ccccc2)(c2ccccc2)N1S(=O)(=O)c1ccccc1", "note": "(centres unmarked) [Stomidazolone]", "values": [{"measurement": "effect on numbers of stomata and meristemoids (in words)", "setting": "20 μM, eight days, MUTEpro::MUTEE162A_E163A-GFP and MUTEpro::MUTER133A_R134A-GFP in mute-2", "result": "did not significantly affect the numbers of stomata and meristemoids"}, {"measurement": "effect on number of stomata (in words)", "setting": "20 μM, eight days, control MUTEpro::MUTE-GFP mute-2", "result": "significantly reduced the number of stomata"}, {"measurement": "Meristemoid density", "setting": "[1]", "result": "0 per mm2 and 2 per mm2 and 5 per mm2"}, {"measurement": "Stomata Total density", "setting": "[1]", "result": "165 per mm2 and 160 per mm2 and 190 per mm2 and 197 per mm2 and 136 per mm2 and 163 per mm2 and 180 per mm2"}, {"measurement": "total (stomata and meristemoids) density", "setting": "[1]", "result": "165 per mm2 and 163 per mm2 and 192 per mm2 and 199 per mm2 and 141 per mm2 and 182 per mm2"}, {"measurement": "Meristemoid density", "setting": "[2]", "result": "2 per mm2 and 0 per mm2 and 5 per mm2"}, {"measurement": "Stomata Total density", "setting": "[2]", "result": "279 per mm2 and 170 per mm2 and 177 per mm2 and 226 per mm2 and 425 per mm2 and 199 per mm2"}, {"measurement": "total (stomata and meristemoids) density", "setting": "[2]", "result": "282 per mm2 and 170 per mm2 and 180 per mm2 and 177 per mm2 and 226 per mm2 and 425 per mm2 and 182 per mm2 and 202 per mm2"}, {"measurement": "Meristemoid density", "setting": "[3]", "result": "0 per mm2 and 7 per mm2 and 29 per mm2 and 5 per mm2"}, {"measurement": "Stomata density", "setting": "[3]", "result": "279 per mm2 and 309 per mm2 and 190 per mm2 and 194 per mm2 and 272 per mm2 and 294 per mm2 and 367 per mm2 and 304 per mm2"}, {"measurement": "total (stomata and meristemoids) density", "setting": "[3]", "result": "279 per mm2 and 316 per mm2 and 197 per mm2 and 224 per mm2 and 272 per mm2 and 294 per mm2 and 367 per mm2 and 309 per mm2"}, {"measurement": "Meristemoid density", "setting": "[4]", "result": "0 per mm2 and 5 per mm2 and 2 per mm2"}, {"measurement": "stomatal density", "setting": "[4]", "result": "197 per mm2 and 216 per mm2 and 250 per mm2 and 287 per mm2 and 219 per mm2 and 182 per mm2 and 226 per mm2"}, {"measurement": "total (stomata and meristemoids) density", "setting": "[4]", "result": "197 per mm2 and 221 per mm2 and 253 per mm2 and 287 per mm2 and 219 per mm2 and 216 per mm2 and 182 per mm2 and 226 per mm2"}, {"measurement": "Meristemoid density", "setting": "[5]", "result": "0 per mm2 and 5 per mm2 and 2 per mm2 and 17 per mm2"}, {"measurement": "stomatal density", "setting": "[5]", "result": "267 per mm2 and 442 per mm2 and 316 per mm2 and 250 per mm2 and 209 per mm2 and 224 per mm2 and 437 per mm2 and 294 per mm2"}, {"measurement": "total (stomata and meristemoids) density", "setting": "[5]", "result": "267 per mm2 and 442 per mm2 and 321 per mm2 and 255 per mm2 and 209 per mm2 and 228 per mm2 and 440 per mm2 and 311 per mm2"}, {"measurement": "Meristemoid density", "setting": "[6]", "result": "0 per mm2 and 5 per mm2"}, {"measurement": "stomatal density (Stomata Total)", "setting": "[6]", "result": "345 per mm2 and 221 per mm2 and 180 per mm2 and 267 per mm2 and 479 per mm2 and 316 per mm2 and 207 per mm2 and 199 per mm2"}, {"measurement": "total (stomata and meristemoids) density", "setting": "[6]", "result": "345 per mm2 and 221 per mm2 and 185 per mm2 and 267 per mm2 and 479 per mm2 and 316 per mm2 and 211 per mm2 and 199 per mm2"}]}]}
